The test system of data set [1] is panel of 12 human tumour cell lines. The data set can be described thus: monolayer proliferation assay (modified propidium iodide assay) in a panel of 12 human tumour cell lines. It is filed as cell-based. As to conditions: for Mean % T/C at 1 μM / Mean % T/C at 10 μM: mean growth across 12 cell-line panel, treated/control x 100, 4 days exposure; for Mean percentage Inhibition of cancer cell lines at 1 uM: 100 minus mean %T/C at 1 uM of Table III. As to the method: In vitro evaluation of compounds for anticancer activity in a panel of 12 human tumour cell lines in a monolayer proliferation assay was carried out at the Oncotest Testing Facility, Institute for Experimental Oncology, Oncotest GmbH, Freiburg.
The Oncotest cell lines were established from human tumor xenografts as described by Roth et al., (1999). The origin of the donor xenografts was described by Fiebig et al., (1999). Other cell lines were either obtained from the NCI (H460, SF-268, OVCAR-3, DU145, MDA-MB-231, MDA-MB-468) or purchased from DSMZ, Braunschweig, Germany (LNCAP).
All cell lines, unless otherwise specified, were grown at 37° C. in a humidified atmosphere (95% air, 5% CO2) in a ‘ready-mix’ medium containing RPMI 1640 medium, 10% fetal calf serum, and 0.1 mg/mL gentamicin (PAA, Cölbe, Germany).
A modified propidium iodide assay was used to assess the effects of the test compound(s) on the growth of human tumour cell lines (Dengler et al., (1995)).
Briefly, cells were harvested from exponential phase cultures by trypsinization, counted and plated in 96 well flat-bottomed microtitre plates at a cell density dependent on the cell line (5-10.000 viable cells/well). After 24 h recovery to allow the cells to resume exponential growth, 0.010 mL of culture medium (6 control wells per plate) or culture medium containing macbecin were added to the wells. Each concentration was plated in triplicate. Compounds were applied in two concentrations (0.001 mM and 0.01 mM). Following 4 days of continuous exposure, cell culture medium with or without test compound was replaced by 0.2 mL of an aqueous propidium iodide (PI) solution (7 mg/L). To measure the proportion of living cells, cells were permeabilized by freezing the plates. After thawing the plates, fluorescence was measured using the Cytofluor 4000 microplate reader (excitation 530 nm, emission 620 nm), giving a direct relationship to the total number of viable cells.
The mean growth inhibition across the 12 cell-line panel was expressed as treated/control×100 (% T/C).
In vitro evaluation of the test compounds for anticancer activity in a panel of human tumour cell lines in a monolayer proliferation assay was carried out as described in the general methods using a modified propidium iodide assay. This screen may be used as a model for the toxic effect of compounds in inhibiting general cell growth.

In a further data set the test system is CAM vasculature. Description: Chick chorioallantoic membrane (CAM) assay of anti-angiogenic activity. It is filed as in vivo. As to conditions: for Ratio of inhibition of CAM vasculature at 25 ng/CAM to in vitro cancer cell inhibition at 1 uM: 25 ng/CAM versus 1 uM in cancer cell panel; for Mean blood vessel density score: angiogenesis score up to 32 (highest density), 0 = no angiogenesis, mean of ten experiments; for anti-angiogenic therapeutic index (ratio of anti-angiogenesis to general cell inhibition), in words: as compared to 1 and 6. Here is the method:
Fresh fertile eggs were be incubated for 3 days in a standard egg incubator at 37° C. for 3 days. On Day 3, eggs were cracked under sterile conditions and embryos were placed into 20×100 mm plastic plates and cultivated at 37° C. in an embryo incubator with a water reservoir on the bottom shelf. Air was continuously bubbled into the water reservoir using a small pump so that the humidity in the incubator was kept constant. […] Embryos were returned to the incubator after addition of test material. Control embryos received 10 μL of vehicle alone. […] The blood vessel density was semi-quantitatively measured using an angiogenesis scoring system, in that exponential numbers 1 to 32 were used to indicate number of blood vessels present at the treatment sites on the CAM. Number 32 represented the highest density and 0 represented no angiogenesis. The percent of inhibition at each dosing site was calculated using the score recorded for that site divided by the mean score obtained from the appropriate control samples for each individual experiment. The percent of inhibition for each dose of a given compound was calculated by pooling all results obtained for that dose.

Data set [2] can be described thus: Cleavage studies in rat blood to give the parent acid 6. The format is in vitro ADME. The following applies: rat blood (EDTA), 0.01 mg/mL, 37° C.; for cleavage to give the parent compound 6: up to 180 minutes. Here is the method: The sample was diluted to a volume of 1 mL by addition of 0.1 M aqueous KH2PO4. […] An Oasis MAX cartridge (1 cc/30 mg) was conditioned with 1 mL MeOH and 1 mL water successively. The supernatant was transferred to the conditioned cartridge at a flow rate of 1-2 mL/min. […] The extracts were transferred to autosampler vials and immediately analysed by LC/MS. […] LCMS was performed on a Bruker Daltonics Esquire 3000+ mass spectrometer equipped with an electrospray source coupled to the HPLC. […] Injection volume: 0.05 mL. HPLC was performed on a Waters Symmetry C8 3.5 micron column, 50 mm×2.1 mm, running a mobile phase of: mobile phase A: 0.1% formic acid in water; mobile phase B: 0.1% Formic acid in acetonitrile; flow rate: 1 mL/minute. […] Fragmentation of this molecular species results in a spectrum with intense ions at m/z 271 and 412. The daughter ion at m/z 412 can be ideally selected for quantification.

Data set [3] relates to Lewis lung adenocarcinoma. As to conditions: rats; intraperitoneal and per os administration at subtoxic doses; cited from earlier work.
In data set [4] the test system is mouse colon adenocarcinoma cells. The following applies: subtoxic dose; cited from earlier work.
Another data set concerns endothelial cells. The following applies: with respect to borrelidin; WO 01/09113; cited from earlier work.

By inhibition is commonly meant the relative decrease from the control value, in per cent.

Take `CC1CC(C)CC(C)C(O)C(C#N)=CC=CCC(C2CCC2C(N)=O)OC(=O)CC(O)C(C)C1` (stereo not drawn) [Compound 14, 17-des(cyclopentane-2-carboxylic acid)-17-(cyclobutane-2-carboxylic acid)borrelidin amide]: in data set [1], the “inhibition of cell growth at 1 μM (in words)” value (“inhibition of cell growth” for short) is “little or no inhibition of cell growth”, the “Mean % T/C at 1 μM” value was found to be 92 % T/C and the “Mean % T/C at 10 μM” value amounted to 26 % T/C.

For `CC1CC(C)CC(C)C(O)C(C#N)=CC=CCC(C2CCC2C(=O)NCCN2CCOCC2)OC(=O)CC(O)C(C)C1` (stereo not drawn) [Compound 9, 17-des(cyclopentane-2-carboxylic acid)-17-(cyclobutane-2-carboxylic acid)borrelidin (4-(2-aminoethyl))morpholine amide], in data set [1], the “inhibition of cell growth” value is “little or no inhibition of cell growth”, the “Mean percentage Inhibition of cancer cell lines at 1 uM” value is 0%, the “Mean % T/C at 1 μM” value came out at 101 % T/C and the “Mean % T/C at 10 μM” value was found to be 43 % T/C. Besides, in the data set on CAM vasculature, the “Mean percentage inhibition of CAM vasculature at 25 ng/CAM” value stood at 60%; the “Ratio of inhibition of CAM vasculature at 25 ng/CAM to in vitro cancer cell inhibition at 1 uM” value (“Ratio of inhibition of CAM vasculature” below) is over 60; the “Mean blood vessel density score” value came out at 6.8; the “anti-angiogenic therapeutic index (ratio of anti-angiogenesis to general cell inhibition), in words” value is “especially good”. For the same compound, the “cleavage to give the parent compound 6” value in data set [2] is on record as “did not cleave”.

In the case of `CC1CC(C)CC(C)C(O)C(C#N)=CC=CCC(C2CCC2C(=O)NCc2ccccn2)OC(=O)CC(O)C(C)C1` (stereo not drawn) [Compound 12, 17-des(cyclopentane-2-carboxylic acid)-17-(cyclobutane-2-carboxylic acid)borrelidin (2-aminomethyl)pyridine amide], in data set [1], the “inhibition of cell growth” value is “little or no inhibition of cell growth”, the “Mean % T/C at 1 μM” value amounted to 87 % T/C and the “Mean % T/C at 10 μM” value is on record as 15 % T/C.

As to `CC1CC(C)CC(C)C(O)CC(=O)OC(C2CCCC2C(=O)NCc2cccnc2)C(C#N)=CC=CCC(O)C(C)C1` (stereo not drawn) [borrelidin-(3-picolylamide) derivative, borrelidin-(3-picolylamide)], in data set [3], the increase of micrometastases result is reported as “inhibit very considerably”. Further, the “metastasis-forming ability of mouse colon adenocarcinoma cells transplanted into mouse spleen” value in data set [4] was “considerably decreased”.

As for “17-des(cyclopentane-2-carboxylic acid)-17-(cyclobutane-2-carboxylic acid)borrelidin (2-(2-hydroxyethyl)pyridine ester [Compound 8]”, in data set [1], the “Mean % T/C at 1 μM” value came out at 40 % T/C and the “Mean % T/C at 10 μM” value was 6 % T/C.

Consider “17-des(cyclopentane-2-carboxylic acid)-17-(cyclobutane-2-carboxylic acid)borrelidin (4-(2-hydroxyethyl))morpholine ester [Compound 7]”, for which, in data set [1], the “Mean percentage Inhibition of cancer cell lines at 1 uM” value stood at 64%, the “Mean % T/C at 1 μM” value is on record as 36 % T/C and the “Mean % T/C at 10 μM” value was found to be 8 % T/C. Moreover, in the data set on CAM vasculature, the “Mean percentage inhibition of CAM vasculature at 25 ng/CAM” value worked out at 54%; the “Ratio of inhibition of CAM vasculature” value is 0.84; the “Mean blood vessel density score” value stood at 7.8; the “anti-angiogenic therapeutic index (ratio of anti-angiogenesis to general cell inhibition), in words” value is given as “improved”. For the same compound, in data set [2], the “half-life for the cleavage to parent compound 6” value is given as about 12 min and the “cleavage to give the parent compound 6” value was “rapidly cleaved”.

Turning to `C[C@@H]1C[C@H](C)C[C@H](C)[C@@H](O)CC(=O)O[C@H]([C@@H]2CCC[C@H]2C(=O)OCCN2CCOCC2)C/C=C/C=C(/C#N)[C@H](O)[C@@H](C)C1` [borrelidin-morpholinoethyl ester], in the data set on endothelial cells, the “selectivity index for capillary formation inhibitory activity versus cell proliferation” value is reported as 60 fold.

Turning to `CC1CC(C)CC(C)C(O)C(C#N)=CC=CCC(C2CCC2C(=O)NCCc2cccnc2)OC(=O)CC(O)C(C)C1` (stereo not drawn) [Compound 13, 17-des(cyclopentane-2-carboxylic acid)-17-(cyclobutane-2-carboxylic acid)borrelidin (3-(2-aminoethyl))pyridine amide], in data set [1], the “inhibition of cell growth” value is listed as “little or no inhibition of cell growth”, the “Mean % T/C at 1 μM” value is 97 % T/C and the “Mean % T/C at 10 μM” value is reported as 37 % T/C. Further, the “cleavage to give the parent compound 6” value in data set [2] is on record as “did not cleave”.

Turning to `CC1CC(C)CC(C)C(O)C(C#N)=CC=CCC(C2CCC2C(=O)NCc2cccnc2)OC(=O)CC(O)C(C)C1` (stereo not drawn) [Compound 11, 17-des(cyclopentane-2-carboxylic acid)-17-(cyclobutane-2-carboxylic acid)borrelidin (3-aminomethyl)pyridine amide], in data set [1], the “inhibition of cell growth” value is given as “little or no inhibition of cell growth”, the “Mean % T/C at 1 μM” value is on record as 97 % T/C and the “Mean % T/C at 10 μM” value is reported as 20 % T/C.

`CC1CC(C)CC(C)C(O)C(C#N)=CC=CCC(C2CCC2C(=O)NCc2ccncc2)OC(=O)CC(O)C(C)C1` (stereo not drawn) [Compound 10, 17-des(cyclopentane-2-carboxylic acid)-17-(cyclobutane-2-carboxylic acid)borrelidin (4-aminomethyl)pyridine amide]: in data set [1], the “inhibition of cell growth” value is given as “little or no inhibition of cell growth”, the “Mean % T/C at 1 μM” value is given as 104 % T/C and the “Mean % T/C at 10 μM” value stood at 57 % T/C.

As for `C[C@@H]1C[C@H](C)C[C@H](C)[C@@H](O)CC(=O)O[C@H]([C@@H]2CCC[C@H]2C(=O)NCCN2CCOCC2)C/C=C/C=C(/C#N)[C@H](O)[C@@H](C)C1` [borrelidin-morpholinoethyl amide], the “selectivity index for capillary formation inhibitory activity versus cell proliferation” value in the data set with endothelial cells is 6 fold.

Regarding borrelidin-amide, the “selectivity index for capillary formation inhibitory activity versus cell proliferation” value in the data set with endothelial cells is recorded as 37 fold.

Consider `C[C@@H]1C[C@H](C)C[C@H](C)[C@@H](O)CC(=O)O[C@@H](C2CC[C@H]2C(=O)O)C/C=C/C=C(/C#N)[C@H](O)[C@@H](C)C1` (stereo partly drawn) [Compound 6, 17-des(cyclopentane-2-carboxylic acid)-17-(cyclobutane-2-carboxylic acid)borrelidin], for which, in data set [1], the “Mean % T/C at 1 μM” value came out at 33 % T/C and the “Mean % T/C at 10 μM” value stood at 8 % T/C. Also, the inhibition at 1 µM in data set [1] (Homo sapiens, read-out: Mean percentage Inhibition of cancer cell lines at 1 uM) turned out to be 67%. In the data set with CAM vasculature, the “Mean percentage inhibition of CAM vasculature at 25 ng/CAM” value worked out at 51%, the “Ratio of inhibition of CAM vasculature” value amounted to 0.76 and the “Mean blood vessel density score” value was determined as 8.2.

For `CC1CC(C)CC(C)C(O)C(C#N)=CC=CCC(C2CCCC2C(=O)OCCc2ccccn2)OC(=O)CC(O)C(C)C1` (stereo not drawn) [borrelidin-(2-pyridyl)-ethyl ester], the “selectivity index for capillary formation inhibitory activity versus cell proliferation” value with endothelial cells is on record as 7.5 fold.
